Structures can show the parent of a compound that is named as a salt.
Molecular target: T1, mutant CFTR (Homo sapiens, UniProt P13569, DEL508-508)
T1 construct: expressed in transfected cells
Assay: Fluorescence (HS-YFP) assay for CFTR activity, corrector assay
Assay type: cell-based
Conditions: CFBE41o- and FRT cells with stable expression of mutant CFTR, read-out: activity (EC50)

T1 sequence (P13569 with tags, fused parts or gaps DEL508-508): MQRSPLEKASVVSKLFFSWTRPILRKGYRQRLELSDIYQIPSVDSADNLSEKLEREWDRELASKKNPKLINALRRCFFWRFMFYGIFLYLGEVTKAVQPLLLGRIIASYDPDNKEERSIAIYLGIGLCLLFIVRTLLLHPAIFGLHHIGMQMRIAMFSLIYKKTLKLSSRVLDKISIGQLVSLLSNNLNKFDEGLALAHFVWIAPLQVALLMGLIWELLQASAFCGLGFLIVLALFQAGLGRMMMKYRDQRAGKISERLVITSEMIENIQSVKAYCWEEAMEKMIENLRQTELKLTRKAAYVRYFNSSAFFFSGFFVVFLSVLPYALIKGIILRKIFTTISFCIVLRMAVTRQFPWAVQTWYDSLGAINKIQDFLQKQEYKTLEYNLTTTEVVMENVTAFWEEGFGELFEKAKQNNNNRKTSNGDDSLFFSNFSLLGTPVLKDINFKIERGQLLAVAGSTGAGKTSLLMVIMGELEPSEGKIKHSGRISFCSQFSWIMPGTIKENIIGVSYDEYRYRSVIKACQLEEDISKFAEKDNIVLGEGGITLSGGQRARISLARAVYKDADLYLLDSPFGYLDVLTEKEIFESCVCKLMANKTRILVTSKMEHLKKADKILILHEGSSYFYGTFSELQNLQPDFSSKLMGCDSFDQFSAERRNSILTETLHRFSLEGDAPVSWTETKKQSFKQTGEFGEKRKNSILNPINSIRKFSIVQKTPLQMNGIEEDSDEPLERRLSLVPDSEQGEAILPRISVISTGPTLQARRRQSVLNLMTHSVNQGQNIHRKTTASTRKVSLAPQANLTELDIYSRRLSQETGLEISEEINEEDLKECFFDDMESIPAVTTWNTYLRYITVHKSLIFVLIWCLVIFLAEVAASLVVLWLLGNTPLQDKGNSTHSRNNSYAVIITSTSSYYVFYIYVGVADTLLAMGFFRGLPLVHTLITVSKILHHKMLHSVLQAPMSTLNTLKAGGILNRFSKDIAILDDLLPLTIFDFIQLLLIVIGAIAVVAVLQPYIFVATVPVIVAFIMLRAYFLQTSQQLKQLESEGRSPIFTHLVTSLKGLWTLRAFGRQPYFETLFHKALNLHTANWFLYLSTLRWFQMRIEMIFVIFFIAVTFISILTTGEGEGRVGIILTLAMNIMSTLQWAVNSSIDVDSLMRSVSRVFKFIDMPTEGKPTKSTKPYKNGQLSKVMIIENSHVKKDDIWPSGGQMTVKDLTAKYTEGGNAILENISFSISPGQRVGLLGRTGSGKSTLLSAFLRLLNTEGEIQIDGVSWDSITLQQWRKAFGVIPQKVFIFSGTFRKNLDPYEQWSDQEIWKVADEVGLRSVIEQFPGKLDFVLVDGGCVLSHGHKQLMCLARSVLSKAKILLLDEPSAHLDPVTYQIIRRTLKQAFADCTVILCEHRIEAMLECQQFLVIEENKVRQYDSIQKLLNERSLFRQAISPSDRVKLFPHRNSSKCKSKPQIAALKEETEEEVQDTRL

With `CN(C(=O)c1cccc(-n2nc(C(F)(F)F)c3c2CC2CCC3N2)c1)c1ccc2c(c1)OCO2` (racemic) [Compound 022, N-(Benzo[d][1,3]dioxol-5-yl)-N-methyl-3-(3-(trifluoromethyl)-5,6,7,8-tetrahydro-4,7-epiminocyclohepta[c]pyrazol-1(4H)-yl)benzamide hydrochloride] the EC50 was less than 1000 nM.

Compound `CN(C(=O)c1cccc(-n2nc(C(F)(F)F)c3c2CC2CCC3N2C)c1)c1ccc2c(c1)OCO2` (racemic) [Compound 023, N-(Benzo[d][1,3]dioxol-5-yl)-N-methyl-3-(9-methyl-3-(trifluoromethyl)-5,6,7,8-tetrahydro-4,7-epiminocyclohepta [c]pyrazol-1(4H)-yl)benzamide] has an EC50 of less than 1000 nM.

Work on `CCC(C)N1CCc2c(c(C(F)(F)F)nn2-c2cccc(C(=O)N(C)c3ccc4c(c3)OCO4)c2)C1` (racemic) [Compound 024, N-(1,3-Benzodioxol-5-yl)-N-methyl-3-[5-sec-butyl-3-(trifluoromethyl)-6,7-dihydro-4H-pyrazolo[4,3-c]pyridin-1-yl]benzamide] yielded an EC50 of less than 1000 nM.

`CN(C(=O)c1cccc(-n2nc(C(F)(F)F)c3c2C(Oc2cncc(C(=O)O)c2)COC3)c1)c1ccc2c(c1)OC(F)(F)O2` (racemic) [Compound 210, 5-[[1-[3-[(2,2-Difluoro-1,3-benzodioxol-5-yl)-methyl-carbamoyl]phenyl]-3-(trifluoromethyl)-6,7-dihydro-4H-pyrano[4,3-c]pyrazol-7-yl]oxy]pyridine-3-carboxylic acid] gave an EC50 of 1000 to 2000 nM.

For `CN(C(=O)c1cccc(-n2nc(C(F)(F)F)c3c2C(Oc2ccc(C(=O)O)cn2)COC3)c1)c1ccc2c(c1)OC(F)(F)O2` (racemic) [Compound 213, 6-[[1-[3-[(2,2-Difluoro-1,3-benzodioxol-5-yl)-methyl-carbamoyl]phenyl]-3-(trifluoromethyl)-6,7-dihydro-4H-pyrano[4,3-c]pyrazol-7-yl]oxy]pyridine-3-carboxylic acid], the EC50 was less than 1000 nM.

`CN(C(=O)c1cccc(-n2nc(C(F)(F)F)c3c2C(Oc2ccc(C(=O)O)cc2)CCC3)c1)c1cnc(OC(F)F)nc1` (racemic) [Compound 219, 4-[[1-[3-[[2-(Difluoromethoxy)pyrimidin-5-yl]-methyl-carbamoyl]phenyl]-3-(trifluoromethyl)-4,5,6,7-tetrahydroindazol-7-yl]oxy]benzoic acid] gave an EC50 of 1000 to 2000 nM.

`CN(C(=O)c1cccc(-n2nc(C(F)(F)F)c3c2C(Oc2cc(C(=O)O)ccn2)COC3)c1)c1ccc2c(c1)OC(F)(F)O2` (racemic) [Compound 231, 2-[[1-[3-[(2,2-Difluoro-1,3-benzodioxol-5-yl)-methyl-carbamoyl]phenyl]-3-(trifluoromethyl)-6,7-dihydro-4H-pyrano[4,3-c]pyrazol-7-yl]oxy]pyridine-4-carboxylic acid] showed an EC50 of less than 1000 nM.

Work on `CN(C(=O)c1cccc(-n2nc(C(F)F)c3c2C(Oc2ccc(C(=O)O)cc2)CCC3)c1)c1ccc2c(c1)OC(F)(F)O2` (racemic) [Compound 254, (rac)-4-[[1-[3-[(2,2-difluoro-1,3-benzodioxol-5-yl)-methyl-carbamoyl]phenyl]-3-(difluoromethyl)-4,5,6,7-tetrahydroindazol-7-yl]oxy]benzoic acid] yielded an EC50 of less than 1000 nM.

`CN(C(=O)c1cccc(-n2nc(C(F)(F)F)c3c2C(Oc2ccc(C(=O)O)cc2)CCC3)c1)c1cnc2c(c1)CCC2` (racemic) [Compound 258, (rac)-4-[[1-[3-[6,7-dihydro-5H-Cyclopenta[b]pyridin-3-yl(methyl)carbamoyl]phenyl]-3-(trifluoromethyl)-4,5,6,7-tetrahydroindazol-7-yl]oxy]benzoic acid] was tested, and the EC50 was less than 1000 nM.

In the case of `CN(C(=O)c1cccc(-n2nc(C(F)(F)F)c3c2C(Oc2ccc(C(=O)O)cc2)CCC3)c1)c1cnc2c(c1)OCC2` (racemic) [Compound 259, (rac)-4-[[1-[3-[2,3-Dihydrofuro[3,2-b]pyridin-6-yl(methyl)carbamoyl]phenyl]-3-(trifluoromethyl)-4,5,6,7-tetrahydroindazol-7-yl]oxy]benzoic acid], the EC50 is reported as less than 1000 nM.

`CN(C(=O)c1cccc(-n2nc(C(F)(F)F)c3c2C(Oc2ccc(C(=O)O)cc2)CCC3)c1)c1cnc2c(c1)COC2` (racemic) [Compound 260, (rac)-4-[[1-[3-[5,7-Dihydrofuro[3,4-b]pyridin-3-yl(methyl)carbamoyl]phenyl]-3-(trifluoromethyl)-4,5,6,7-tetrahydroindazol-7-yl]oxy]benzoic acid] showed an EC50 of 1000 to 2000 nM.

`CN(C(=O)c1cccc(-n2nc(C(F)(F)F)c3c2C(Oc2ccc(C(=O)O)cc2)CCC3)c1)c1ccc2c(c1)OCC2` (racemic) [Compound 261, (rac)-4-[[1-[3-[2,3-Dihydrobenzofuran-6-yl(methyl)carbamoyl]phenyl]-3-(trifluoromethyl)-4,5,6,7-tetrahydroindazol-7-yl]oxy]benzoic acid] showed an EC50 of less than 1000 nM.

In the case of `CN(C(=O)c1cccc(-n2nc(C(F)(F)F)c3c2C(Oc2ccc(C(=O)O)cc2)COC3)c1)c1cnc2c(c1)OCC2` (racemic) [Compound 262, 4-[[1-[3-[2,3-Dihydrofuro[3,2-b]pyridin-6-yl(methyl)carbamoyl]phenyl]-3-(trifluoromethyl)-6,7-dihydro-4H-pyrano[4,3-c]pyrazol-7-yl]oxy]benzoic acid], the EC50 is reported as 1000 to 2000 nM.

`CN(C(=O)c1cccc(-n2nc(C(F)F)c3c2C(Oc2ccc(C(=O)O)cc2)COC3)c1)c1ccc2c(c1)OC(F)(F)O2` (racemic) [Compound 263, 4-[[1-[3-[(2,2-difluoro-1,3-benzodioxol-5-yl)-methyl-carbamoyl]phenyl]-3-(difluoromethyl)-6,7-dihydro-4H-pyrano[4,3-c]pyrazol-7-yl]oxy]benzoic acid] was tested, and the EC50 was less than 1000 nM.

Compound `CN(C(=O)c1cccc(-n2nc(C(F)(F)F)c3c2C(Oc2ccc(C(=O)O)cc2)COC3)c1)c1ccc2c(c1)OCC2` (racemic) [Compound 265, 4-[[1-[3-[2,3-Dihydrobenzofuran-6-yl(methyl)carbamoyl]phenyl]-3-(trifluoromethyl)-6,7-dihydro-4H-pyrano[4,3-c]pyrazol-7-yl]oxy]benzoic acid] has an EC50 of less than 1000 nM.

In the case of `CN(C(=O)c1cccc(-n2nc(C(F)(F)F)c3c2C(Oc2ccc(C(=O)O)cc2)CCC3)c1)c1cccc(OC(F)F)c1` (racemic) [Compound 266, 4-[[1-[3-[[3-(Difluoromethoxy)phenyl]-methyl-carbamoyl]phenyl]-3-(trifluoromethyl)-4,5,6,7-tetrahydroindazol-7-yl]oxy]benzoic acid], the EC50 is reported as 1000 to 2000 nM.

For `CN(C(=O)c1cccc(-n2nc(C(F)(F)F)c3c2C(Oc2ccc(C(=O)O)cc2)CCC3)c1)c1cncc(OC(F)F)c1` (racemic) [Compound 267, 4-[[1-[3-[[5-(Difluoromethoxy)-3-pyridyl]-methyl-carbamoyl]phenyl]-3-(trifluoromethyl)-4,5,6,7-tetrahydroindazol-7-yl]oxy]benzoic acid], the EC50 was 1000 to 2000 nM.

`CN(C(=O)c1cccc(-n2nc(C(F)(F)F)c3c2C(Oc2ccc(C(=O)O)cc2)CCC3)c1)c1ccnc(OC(F)F)c1` (racemic) [Compound 268] gave an EC50 of less than 1000 nM.

`Cc1nc2ncc(N(C)C(=O)c3cccc(-n4nc(C(F)(F)F)c5c4C(Oc4ccc(C(=O)O)cc4)COC5)c3)cc2o1` (racemic) [Compound 269, 4-[[1-[3-[Methyl-(2-methyloxazolo[4,5-b]pyridin-6-yl)carbamoyl]phenyl]-3-(trifluoromethyl)-6,7-dihydro-4H-pyrano[4,3-c]pyrazol-7-yl]oxy]benzoic acid] was tested, and the EC50 was less than 1000 nM.

From patent US10968225B2, “Compounds and compositions for the treatment of cystic fibrosis” (Fondazione Istituto Italiano Di Tecnologia, priority 2017, dated 2021)
